Data on one compound can be found in patent US9120762B2, “Salts of bicyclo-substituted pyrazolon azo derivatives, preparation method and use thereof” (Jiangsu Hengrui Medicine Co., Ltd., priority 2009, dated 2015).

Data set [1] can be described thus: Hygroscopicity assay, standing 48 hours at 25° C., humidity 79%. The format is physicochemical. The note with it: 48 hours, 25° C., humidity 79%. The protocol:
The hygroscopicity test of the compounds of the present disclosure after standing for 48 hours
1. The arid glass weighing bottle with a tap (external diameter is 50 mm, the height is 15 mm) was placed at 25° C.±1° C. suitably in a thermostatic drier (saturated ammonium sulfate solution was laid in the lower part, humidity was 79%) the day before the assay, precise weight was measured as (m1);
2. The above weighing bottle was covered with the compounds of the invention (about 1 g), and the thickness of the compounds were generally 1 mm, precise weight was measured as (m2);
3. The mouth of the weighing bottle was kept open and placed with the tap in the above conditions with constant temperature and humidity for 48 hours;
4. Put the tap back on the bottle, precise weight was measured as (m3)
The degree of hygroscopicity was defined as follows: […]
Deliquesce: turning into liquid by absorbing enough moisture.
High hygroscopicity: the percentage of hygroscopicity weight gain is not less than 15%.
Hygroscopicity: the percentage of hygroscopicity weight gain is less than 15%, but not less than 2%.
Sparing hygroscopicity: the percentage of hygroscopicity weight gain is less than 2%, but not less than 0.2%.
No hygroscopicity or almost no hygroscopicity: the percentage of hygroscopicity weight gain is less than 0.2%.

A further data set deals with T1, human TPOR (Homo sapiens, UniProt P40238).
T1 construct: host or cells: BaF3 (murine pro-B cells), stably transfected, G418-selected
T1 sequence (P40238 26-635): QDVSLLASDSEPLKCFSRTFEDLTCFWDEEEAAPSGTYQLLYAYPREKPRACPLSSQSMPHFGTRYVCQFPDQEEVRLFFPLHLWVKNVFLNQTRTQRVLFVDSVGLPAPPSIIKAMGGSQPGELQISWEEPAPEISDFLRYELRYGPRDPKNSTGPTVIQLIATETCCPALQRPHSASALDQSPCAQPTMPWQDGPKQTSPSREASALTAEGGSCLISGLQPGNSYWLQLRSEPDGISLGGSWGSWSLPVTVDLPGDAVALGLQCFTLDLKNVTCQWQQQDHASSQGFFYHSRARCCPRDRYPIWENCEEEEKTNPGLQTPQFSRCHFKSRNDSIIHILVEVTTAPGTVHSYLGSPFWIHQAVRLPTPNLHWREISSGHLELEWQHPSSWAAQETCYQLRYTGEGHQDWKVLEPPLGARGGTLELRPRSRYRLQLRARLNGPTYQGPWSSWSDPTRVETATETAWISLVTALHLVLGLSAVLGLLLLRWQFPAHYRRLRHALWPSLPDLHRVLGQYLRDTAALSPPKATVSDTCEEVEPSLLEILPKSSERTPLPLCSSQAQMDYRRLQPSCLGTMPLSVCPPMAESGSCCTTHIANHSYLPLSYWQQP
In words: Proliferation effect on BAF3-TPOR cell (CCK-8). The format is cell-based. The note with it: rate relative to rhTPO positive control. The gist of the method:
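BaF3 cells stably expressing dual-site-mutated human TPOR were washed free of IL-3 and plated at 100,000 cells/mL with test solutions of 0.001–30 μM, then incubated 24 h at 37 °C. After a further 24 h with CCK-8, OD450 was read. Proliferation = (S−B)/(P−B) against a rhTPO control, fitted for EC50.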

Data set [2] can be described thus: Pharmacokinetics assay in rats. Type of data set: in vivo, SD rats. The note with it: SD rats, intragastric, 50 mg/Kg (as free acid); 50 mg/kg. The gist of the method:
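SD rats, half male and half female, dosed intragastrically with compound suspended at 5 mg/mL (as free acid) in 1% sodium carboxymethyl cellulose; fed 2 h post-dose. Plasma concentrations over time were measured by HPLC-UV. Parameters came from a compartmental fit, with Cmax and tmax as observed values.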

Data set [3] is described as follows: Pharmacokinetics assay in Beagle dogs. Type of data set: in vivo. The note with it: intragastric, 5 mg/kg (as free acid), 5 mg/kg. How it is done:
The pharmacokinetic behavior of the compounds of the present disclosure was studied and evaluated in Beagle dogs.
12 Healthy adult Beagles dogs, male, were purchased from Suzhou Xishan Drug Research and Development Colo., LTD. License number: SCXK (Suzhou) 2007-0005.
The test compound was diluted with 0.5% sodium carboxymethyl cellulose to 2.5 mg/mL (calculated as the free acid form) of suspension before use.
12 Healthy adult Beagles dogs, male, were divided into 4 groups. After an overnight fast, the dogs were administered intragastrically at a dose of 5.0 mg/kg (calculated as the free acid form), at a volume of 2 mL/kg.
Blood samples (1.2 mL) were taken from vein of forelegs at pre administration and at 0.25, 0.5, 1.0, 1.5, 2.0, 3.0, 5.0, 6.0, 8.0, 12.0, 14.0, 24.0 and 48.0 hours post administration, which were stored in heparinized tubes and centrifuged for 10 minutes at 3,500 rpm. The plasma samples were stored at −20° C. until analysis. The Beagles dogs were fed 2 hours after administration.
50 μL of Beagles dog plasma, obtained at various time points after administration, 20 μL of internal standard solution and 150 μL of methanol was added to result in protein precipitation. Then the mixture was mixed for 1 minute using a vortexer and centrifuged for 5 minutes at 11,000 rpm. 50 μL of the supernatant was analyzed by HPLC-UV.
The compartmental model of pharmacokinetics was fitted for the test compounds and the major pharmacokinetic parameters were calculated in which Cmax and tmax were the actually measured values.

Take `CC1=NN(c2ccc3c(c2)CCCC3)C(=O)/C1=N\Nc1cccc(-c2ccc(C(=O)O)o2)c1O` [Example 10]: in data set [1], the “Percentage of weight gain” value was determined as 15.7% and the hygroscopicity result is given as “High hygroscopicity (the percentage of hygroscopicity weight gain is not less than 15%)”. For the same compound, the midpoint of the response on human TPOR, the EC50, lay at 16 nM. Further, in data set [2], the “Area Under Curve AUC” value is 381 ± 306 µg·h/mL, the “Clearance CL/F” value was found to be 8.23 ± 12.6 mL/min/kg, the “Half-Life t½” value was found to be 12.9 ± 6.32 h and the “Plasma Conc. Cmax” value amounted to 65600 ± 44500 ng/mL. For the same compound, the “Time to peak Tmax” value in data set [2] was determined as 1.63 ± 0.75 h. Besides, in data set [3], the “Area Under Curve AUC” value is 9.76 µg·h/mL, the “Clearance CL/F” value turned out to be 10.1 mL/min/kg, the “Half-Life t1/2” value was found to be 8.07 h and the “Plasma Conc. Cmax” value is 810 ng/mL. Further, in data set [3], the “Time to peak Tmax” value came to 0.7 h.

Broadly, the EC50 is the concentration at which the effect is half-maximal.
